These results are taken from patent US20230089014A1, “COMPOUND USED AS KINASE INHIBITOR AND USE THEREOF” (TYK MEDICINES (ZHENGZHOU), INC., priority 2020, published 2023).

As a reminder, the IC50 is the concentration needed to halve the response being measured. A higher IC50 goes with weaker potency.

A value given as a limit tells only on which side of the number the result lay.

What all share (assay type): biochemical
The target of one assay is EGFR A763_Y764insFHEA (Homo sapiens, UniProt P00533, INS763FHEA). Put plainly: Kinase activity assay (33P-ATP filter-binding) on EGFR exon 20 insertion mutant kinase A763_Y764insFHEA. Particulars: for IC50: ATP at Km.
The target of a further assay is EGFR D770-N771insNPG (Homo sapiens, UniProt P00533, INS770NPG). Put plainly: Kinase activity assay (33P-ATP filter-binding) on EGFR exon 20 insertion mutant kinase D770-N771insNPG. Particulars: ATP at Km.
The target in the next assay is Her2 A775-G776insYVMA (Homo sapiens, UniProt P04626, INS775YVMA). The assay can be described thus: Kinase activity assay (33P-ATP filter-binding) on Her2 exon 20 insertion mutant kinase A775-G776insYVMA. Particulars: for IC50: ATP at Km.
Sequence of Her2 A775-G776insYVMA (P04626 with tags, fused parts or gaps INS775YVMA limits assumed): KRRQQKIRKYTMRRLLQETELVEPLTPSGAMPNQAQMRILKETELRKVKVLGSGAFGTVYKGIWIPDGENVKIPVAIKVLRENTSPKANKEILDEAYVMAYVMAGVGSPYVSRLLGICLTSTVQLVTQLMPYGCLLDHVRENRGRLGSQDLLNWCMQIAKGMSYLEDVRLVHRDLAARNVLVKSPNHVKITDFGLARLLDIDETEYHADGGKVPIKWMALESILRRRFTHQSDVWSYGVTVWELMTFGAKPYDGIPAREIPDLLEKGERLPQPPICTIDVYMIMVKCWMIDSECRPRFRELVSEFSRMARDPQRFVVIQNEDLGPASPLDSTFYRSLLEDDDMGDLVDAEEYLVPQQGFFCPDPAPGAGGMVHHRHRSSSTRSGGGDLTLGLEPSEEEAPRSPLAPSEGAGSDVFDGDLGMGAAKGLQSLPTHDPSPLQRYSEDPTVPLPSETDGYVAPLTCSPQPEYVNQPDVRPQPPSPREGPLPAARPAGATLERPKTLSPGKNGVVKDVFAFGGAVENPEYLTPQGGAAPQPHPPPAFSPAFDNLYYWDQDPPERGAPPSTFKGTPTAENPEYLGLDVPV

Protocol for EGFR A763_Y764insFHEA: (§1) Screening of biological activity of compounds will be performed in duplicate at 10 concentrations.
(§2) Each sample was prepared as a solution with a concentration of 10 mM.
(§3) 1) Basic buffer solution and quench buffer solution for experimental kinases were prepared.
(§4) 2) Compounds for experimental kinases were prepared.
(§5) Compounds for test were dissolved to specific concentrations in 100% dimethyl sulfoxide. (Serial) dilutions were performed with Integra Viaflo Assist assisted DMSO.
(§6) The kinase was added to freshly prepared basic reaction buffer, and any desired cofactors were added to the above substrate solution.
(§7) The EGFR exon 20 insertion mutant kinase was added to the substrate solution and mixed gently; the compound in 100% dimethyl sulfoxide was fed into the kinase reaction mixture by using Acoustic technology (Echo550; nanoliter range) and incubated for 20 minutes at room temperature.
(§8) 33P-ATP (Specific activity 10 Ci/l) was added to the reaction mixture to start the reaction, incubated at room temperature for 2 hours, and the radioactivity was detected by the filter-binding method.
(§9) Kinase activity data are expressed as a percentage of remaining kinase activity in the test sample compared to the medium (dimethyl sulfoxide) reaction. IC50 values and curve fitting were obtained by using Prism ([sequence] software).
Protocol for EGFR D770-N771insNPG: as §1, §2, §3, §4, §5, §6, §7, §8, §9
Protocol for Her2 A775-G776insYVMA: as §1, §2, §3, §4, §5, §6, §7, §8, §9

As to `C=CC(=O)N1CCC(C(=O)c2cc3c(Nc4ccc(Cl)c(Cl)c4F)ncnc3cc2OC)CC1` [Example 6], the IC50 at EGFR A763_Y764insFHEA is 16.2 nM; on EGFR A763_Y764insFHEA (class symbols), 4 to 40 nM; at EGFR D770-N771insNPG it was 4.51 nM; at EGFR D770-N771insNPG (class symbols) it was 4 to 40 nM.
On to `C=CC(=O)N1CC2CC1CC2C(=O)c1cc2c(Nc3ccc(Cl)c(Cl)c3F)ncnc2cc1OC` (stereo not drawn) [Example 9], for which the half-maximal inhibitory concentration (IC50) on EGFR A763_Y764insFHEA (class symbols), on EGFR D770-N771insNPG (class symbols) and at Her2 A775-G776insYVMA (class symbols) was 4 to 40 nM in each case.
Regarding `C=CC(=O)N1C2CC(Sc3cc4c(Nc5ccc(Cl)c(Cl)c5F)ncnc4cc3OC)CC1C2` (stereo not drawn) [Example 8], the IC50 on EGFR A763_Y764insFHEA (class symbols) and at EGFR D770-N771insNPG (class symbols) was 4 to 40 nM each time.
In the case of `C=CC(=O)N1CC2C(C1)C2Oc1cc2c(Nc3ccc(Cl)c(Cl)c3F)ncnc2cc1OC` (stereo not drawn) [Example 10], the IC50 at EGFR A763_Y764insFHEA (class symbols) and at EGFR D770-N771insNPG (class symbols) was < 4 nM in each case.
`C=CC(=O)N1CC2CC(Oc3cc4c(Nc5ccc(Cl)c(Cl)c5F)ncnc4cc3OC)CC2C1` (stereo not drawn) [Example 7]: the 50% inhibitory concentration (IC50) on EGFR A763_Y764insFHEA was 4.04 nM; on EGFR A763_Y764insFHEA (class symbols) it was 4 to 40 nM; at EGFR D770-N771insNPG, 0.833 nM; at EGFR D770-N771insNPG (class symbols), < 4 nM; on Her2 A775-G776insYVMA, 1.84 nM; at Her2 A775-G776insYVMA (class symbols), < 4 nM.
Regarding `C=CC(=O)N1CCC(C(F)(F)c2cc3c(Nc4ccc(Cl)c(Cl)c4F)ncnc3cc2OC)CC1` [Example 5], the IC50 on EGFR A763_Y764insFHEA was 2.19 nM; at EGFR A763_Y764insFHEA (class symbols), < 4 nM; on EGFR D770-N771insNPG, 1.54 nM; on EGFR D770-N771insNPG (class symbols) it was < 4 nM; on Her2 A775-G776insYVMA, 1.02 nM; at Her2 A775-G776insYVMA (class symbols) it was < 4 nM. Also, the “inhibitory activity on Her2 insertion mutant kinase relative to that of poziotinib” value on Her2 A775-G776insYVMA is “about 4 times”.
Take `C=CC(=O)N1CC(C(=O)c2cc3c(Nc4ccc(Cl)c(Cl)c4F)ncnc3cc2OC)C1` [Example 4]: the IC50 is 11.8 nM at EGFR A763_Y764insFHEA, 4 to 40 nM at EGFR A763_Y764insFHEA (class symbols), 3.04 nM at EGFR D770-N771insNPG and < 4 nM on EGFR D770-N771insNPG (class symbols).
As to `C=CC(=O)N1C[C@H]2C[C@H](Oc3cc4c(Nc5ccc(Cl)c(Cl)c5F)ncnc4cc3OCCCN3CCOCC3)C[C@H]2C1` [Example 17], the values for the half-inhibitory concentration (IC50) on EGFR A763_Y764insFHEA (class symbols), at EGFR D770-N771insNPG (class symbols) and on Her2 A775-G776insYVMA (class symbols) were 4 to 40 nM, < 4 nM and < 4 nM, respectively.
As to `C=CC(=O)N1C[C@H]2C[C@H](Oc3cc4c(Nc5ccc(Cl)c(Cl)c5F)ncnc4cc3OCCOC)C[C@H]2C1` [Example 16], the IC50 on EGFR A763_Y764insFHEA (class symbols), on EGFR D770-N771insNPG (class symbols) and at Her2 A775-G776insYVMA (class symbols) was < 4 nM each time.
As for `C=CC(=O)N1C2CCC1CC(C(=O)c1cc3c(Nc4ccc(Cl)c(Cl)c4F)ncnc3cc1OC)C2` (stereo not drawn) [Example 11], the IC50 at EGFR A763_Y764insFHEA (class symbols), at EGFR D770-N771insNPG (class symbols) and on Her2 A775-G776insYVMA (class symbols) was 4 to 40 nM in each case.
Take `C=CC(=O)N1CC2(CC(Oc3cc4c(Nc5ccc(Cl)c(Cl)c5F)ncnc4cc3OC)C2)C1` [Example 13]: the IC50 on EGFR A763_Y764insFHEA (class symbols) was 4 to 40 nM; at EGFR D770-N771insNPG (class symbols), < 4 nM; on Her2 A775-G776insYVMA (class symbols) it was < 4 nM.
`C=CC(=O)N1CC2CN(c3cc4c(Nc5ccc(Cl)c(Cl)c5F)ncnc4cc3OC)CC2C1` (stereo not drawn) [Example 1]: the IC50 on EGFR A763_Y764insFHEA was 6.68 nM; on EGFR A763_Y764insFHEA (class symbols), 4 to 40 nM; at EGFR D770-N771insNPG it was 1.61 nM; at EGFR D770-N771insNPG (class symbols), < 4 nM.
As to `COc1cc2ncnc(Nc3ccc(Cl)c(Cl)c3F)c2cc1N1CCCC1` [Example 2], the IC50 on EGFR A763_Y764insFHEA was 3.03 nM; at EGFR A763_Y764insFHEA (class symbols), < 4 nM; at EGFR D770-N771insNPG, 1.65 nM; at EGFR D770-N771insNPG (class symbols), < 4 nM.
`C=CC(=O)N1CCC(Oc2cc3c(Nc4ccc(Cl)c(Cl)c4F)ncnc3cc2OC)CC1` [Poziotinib, reference compound]: the values for the IC50 on Her2 A775-G776insYVMA and on Her2 A775-G776insYVMA (class symbols) were 4.79 nM and 4 to 40 nM, respectively.
Regarding `C=CC(=O)N1CC(C(F)(F)c2cc3c(Nc4ccc(Cl)c(Cl)c4F)ncnc3cc2OC)C1` [Example 3], the half-inhibitory concentration (IC50) on EGFR A763_Y764insFHEA is 1.32 nM; at EGFR A763_Y764insFHEA (class symbols), < 4 nM; at EGFR D770-N771insNPG it was 0.513 nM; at EGFR D770-N771insNPG (class symbols), < 4 nM; on Her2 A775-G776insYVMA it was 2.61 nM; at Her2 A775-G776insYVMA (class symbols), < 4 nM. Also, the “activity relative to that of poziotinib” value on EGFR A763_Y764insFHEA (EGFR exon 20 insertion mutant kinase, mutant not specified) is 2-3 times.
